Test results from patent US11136313B2, “Compounds, compositions, and methods for modulating CFTR” (Proteostasis Therapeutics, Inc., priority 2015, dated 2021).

molecular target: T1, ΔF508-CFTR (Homo sapiens, UniProt P13569, DEL508-508); assay: hBE equivalent current (Ieq) assay: AUC of equivalent chloride current after forskolin/VX-770 in primary lung epithelial cells homozygous for ΔF508; assay type: cell-based; settings: relative to CFTR amplifier (Compound A)+VX-809 (3 uM), compound at 10 uM and Compound A at 3 uM, 24 h treatment
T1 construct: Primary lung epithelial cells homozygous for the Cystic Fibrosis-causing ΔF508 mutation were differentiated for a minimum of 4 weeks; endogenous in cells; host or cells: primary lung epithelial cells (hBE) homozygous for ΔF508, differentiated at an air-liquid interface
T1 sequence (P13569 with tags, fused parts or gaps DEL508-508): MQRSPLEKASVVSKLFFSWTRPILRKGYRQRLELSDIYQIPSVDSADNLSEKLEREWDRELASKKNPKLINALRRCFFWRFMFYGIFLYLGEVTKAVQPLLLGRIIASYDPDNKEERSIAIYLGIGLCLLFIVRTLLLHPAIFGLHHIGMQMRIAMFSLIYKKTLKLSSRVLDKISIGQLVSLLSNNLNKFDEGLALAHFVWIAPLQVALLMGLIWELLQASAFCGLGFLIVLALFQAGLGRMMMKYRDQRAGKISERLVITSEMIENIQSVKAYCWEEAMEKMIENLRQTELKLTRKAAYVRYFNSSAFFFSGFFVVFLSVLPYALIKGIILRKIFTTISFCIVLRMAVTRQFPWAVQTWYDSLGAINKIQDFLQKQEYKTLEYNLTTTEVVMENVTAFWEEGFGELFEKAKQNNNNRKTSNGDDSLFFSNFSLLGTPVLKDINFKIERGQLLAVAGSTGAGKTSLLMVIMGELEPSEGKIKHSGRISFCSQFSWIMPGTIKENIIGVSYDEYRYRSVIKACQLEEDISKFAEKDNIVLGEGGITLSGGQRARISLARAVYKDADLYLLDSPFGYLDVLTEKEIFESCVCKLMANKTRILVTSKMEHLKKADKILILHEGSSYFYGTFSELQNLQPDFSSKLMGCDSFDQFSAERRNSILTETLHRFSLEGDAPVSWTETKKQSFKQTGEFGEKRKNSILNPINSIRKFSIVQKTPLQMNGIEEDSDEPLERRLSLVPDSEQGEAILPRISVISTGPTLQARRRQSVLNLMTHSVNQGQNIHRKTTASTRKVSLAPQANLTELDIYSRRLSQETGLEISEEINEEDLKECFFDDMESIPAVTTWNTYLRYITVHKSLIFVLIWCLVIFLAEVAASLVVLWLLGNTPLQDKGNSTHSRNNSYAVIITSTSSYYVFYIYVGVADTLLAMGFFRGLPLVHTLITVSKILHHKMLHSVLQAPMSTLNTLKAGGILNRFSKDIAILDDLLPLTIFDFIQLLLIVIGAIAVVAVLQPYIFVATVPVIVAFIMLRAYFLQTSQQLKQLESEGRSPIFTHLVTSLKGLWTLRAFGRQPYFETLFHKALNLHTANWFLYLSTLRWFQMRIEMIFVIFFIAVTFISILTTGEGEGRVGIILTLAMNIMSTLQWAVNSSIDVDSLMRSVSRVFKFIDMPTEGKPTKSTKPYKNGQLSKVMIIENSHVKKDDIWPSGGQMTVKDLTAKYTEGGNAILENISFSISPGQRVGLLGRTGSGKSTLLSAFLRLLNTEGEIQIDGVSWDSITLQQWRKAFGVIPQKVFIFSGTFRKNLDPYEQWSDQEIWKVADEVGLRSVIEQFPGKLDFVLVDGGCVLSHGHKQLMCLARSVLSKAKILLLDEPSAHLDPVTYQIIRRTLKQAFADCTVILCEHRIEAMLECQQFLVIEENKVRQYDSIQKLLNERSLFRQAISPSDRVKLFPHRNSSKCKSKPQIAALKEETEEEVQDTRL
Method in brief: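 Readout is the increase over vehicle in equivalent chloride current AUC from forskolin/VX-770 addition to bumetanide, measured by current clamp at 36 °C after benzamil block of ENaC. Cultures were homozygous ΔF508 primary lung epithelium grown ≥4 weeks at air-liquid interface and exposed basolaterally to compound for 24 h.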

SMILES	Activity
Cc1c(-c2cc(C(=O)O)c3c(OC4CCCCC4)ccc(C)c3n2)sc2ccccc12 [Compound 134, 5-(Cyclohexyloxy)-8-methyl-2-(3-methyl-1-benzothiophen-2-yl)quinoline-4-carboxylic acid]	++ (activity>50% of CFTR amplifier+VX-809 (3 uM) with compound at 10 uM and Compound A at 3 uM)
CCc1ccc(OC2CCCCC2)c2c(C(=O)O)cc(-c3sc4ccccc4c3C)nc12 [Compound 135, 5-(Cyclohexyloxy)-8-ethyl-2-(3-methyl-1-benzothiophen-2-yl)quinoline-4-carboxylic acid]	++ (activity>50% of CFTR amplifier+VX-809 (3 uM) with compound at 10 uM and Compound A at 3 uM)
Cc1c(-c2cc(C(=O)O)c3c(O[C@H](C)c4ccccc4)ccc(C)c3n2)sc2ccccc12 [Compound 137, 8-Methyl-2-(3-methyl-1-benzothiophen-2-yl)-5-[(1R)-1-phenylethoxy]quinoline-4-carboxylic Acid]	++ (activity>50% of CFTR amplifier+VX-809 (3 uM) with compound at 10 uM and Compound A at 3 uM)
Cc1c(-c2cc(C(=O)O)c3c(O[C@@H](C)c4ccccc4)ccc(C)c3n2)sc2ccccc12 [Compound 138, 8-Methyl-2-(3-methyl-1-benzothiophen-2-yl)-5-[(1S)-1-phenylethoxy]quinoline-4-carboxylic Acid]	++ (activity>50% of CFTR amplifier+VX-809 (3 uM) with compound at 10 uM and Compound A at 3 uM)
CCc1ccc([S+]([O-])C2CCCCC2)c2c(C(=O)[O-])cc(-c3sc4ccccc4c3C)nc12.[Na+] (centres unmarked) [Compound 140, Sodium 5-(Cyclohexanesulfinyl)-8-ethyl-2-(3-methyl-1-benzothiophen-2-yl)quinoline-4-carboxylate]	++ (activity>50% of CFTR amplifier+VX-809 (3 uM) with compound at 10 uM and Compound A at 3 uM)
CCc1ccc(OCCc2cccnc2)c2c(C(=O)O)cc(-c3sc4ccccc4c3C)nc12 [Compound 141, 8-Ethyl-2-(3-methyl-1-benzothiophen-2-yl)-5-[2-(pyridin-3-yl)ethoxy]quinoline-4-carboxylic Acid]	+ (activity<50% of an CFTR amplifier (Compound A)+VX-809 (3 uM) with compound at 10 uM and Compound A at 3 uM)
CCc1ccc(OCc2cccc([S+](C)[O-])c2)c2c(C(=O)O)cc(-c3oc4ccccc4c3C)nc12 (centres unmarked) [Compound 142, 8-Ethyl-5-[(3-methanesulfinylphenyl)methoxy]-2-(3-methyl-1-benzofuran-2-yl)quinoline-4-carboxylic Acid]	++ (activity>50% of CFTR amplifier+VX-809 (3 uM) with compound at 10 uM and Compound A at 3 uM)
CCc1ccc(OCc2cccc(S(C)(=O)=O)c2)c2c(C(=O)O)cc(-c3oc4ccccc4c3C)nc12 [Compound 143, 8-Ethyl-5-[(3-methanesulfonylphenyl)methoxy]-2-(3-methyl-1-benzofuran-2-yl)quinoline-4-carboxylic Acid]	++ (activity>50% of CFTR amplifier+VX-809 (3 uM) with compound at 10 uM and Compound A at 3 uM)
CCc1ccc(OCc2ccc([S+](C)[O-])cc2)c2c(C(=O)O)cc(-c3oc4ccccc4c3C)nc12 (centres unmarked) [Compound 144, 8-Ethyl-5-[(4-methanesulfinylphenyl)methoxy]-2-(3-methyl-1-benzofuran-2-yl)quinoline-4-carboxylic acid]	++ (activity>50% of CFTR amplifier+VX-809 (3 uM) with compound at 10 uM and Compound A at 3 uM)
CCc1ccc(OCc2ccc(S(C)(=O)=O)cc2)c2c(C(=O)O)cc(-c3oc4ccccc4c3C)nc12 [Compound 145, 8-Ethyl-5-[(4-methanesulfonylphenyl)methoxy]-2-(3-methyl-1-benzofuran-2-yl)quinoline-4-carboxylic acid]	++ (activity>50% of CFTR amplifier+VX-809 (3 uM) with compound at 10 uM and Compound A at 3 uM)
CCc1ccc(OCc2ccccc2)c2c(C(=O)O)cc(-c3[nH]c4ccccc4c3C)nc12 [Compound 146, 5-(Benzyloxy)-8-ethyl-2-(3-methyl-1H-indol-2-yl)quinoline-4-carboxylic acid]	++ (activity>50% of CFTR amplifier+VX-809 (3 uM) with compound at 10 uM and Compound A at 3 uM)
CCc1ccc(OCc2ccccc2)c2c(C(=O)O)cc(-c3c(C)c4ccccc4n3C)nc12 [Compound 147, 5-(Benzyloxy)-2-(1,3-dimethyl-1H-indol-2-yl)-8-ethylquinoline-4-carboxylic acid]	+ (activity<50% of an CFTR amplifier (Compound A)+VX-809 (3 uM) with compound at 10 uM and Compound A at 3 uM)
CCc1ccc(OCc2ccccc2)c2c(C(=O)O)cc(-c3csc4ccccc34)nc12 [Compound 158, 2-(1-Benzothiophen-3-yl)-5-(benzyloxy)-8-ethylquinoline-4-carboxylic acid]	++ (activity>50% of CFTR amplifier+VX-809 (3 uM) with compound at 10 uM and Compound A at 3 uM)
CCc1ccc(OC2CCCCC2)c2c(C(=O)O)cc(-c3csc4ccccc34)nc12 [Compound 159, 2-(1-Benzothiophen-3-yl)-5-(cyclohexyloxy)-8-ethylquinoline-4-carboxylic acid]	++ (activity>50% of CFTR amplifier+VX-809 (3 uM) with compound at 10 uM and Compound A at 3 uM)
Cc1ccc(O[C@H](C)c2ccccc2)c2c(C(=O)O)cc(-c3csc4ccccc34)nc12 [Compound 162]	++ (activity>50% of CFTR amplifier+VX-809 (3 uM) with compound at 10 uM and Compound A at 3 uM)
CCc1ccc(O[C@H](C)c2ccccc2)c2c(C(=O)O)cc(-c3csc4ccccc34)nc12 [Compound 165]	++ (activity>50% of CFTR amplifier+VX-809 (3 uM) with compound at 10 uM and Compound A at 3 uM)
CCc1ccc(O[C@@H](C)c2ccccc2)c2c(C(=O)O)cc(-c3csc4ccccc34)nc12 [Compound 166]	++ (activity>50% of CFTR amplifier+VX-809 (3 uM) with compound at 10 uM and Compound A at 3 uM)
CCc1ccc(OCc2ccccc2)c2c(C(=O)O)cc(-c3coc4ccccc34)nc12 [Compound 169, 2-(1-Benzofuran-3-yl)-5-(benzyloxy)-8-ethylquinoline-4-carboxylic acid]	++ (activity>50% of CFTR amplifier+VX-809 (3 uM) with compound at 10 uM and Compound A at 3 uM)
CCc1ccc(OC2CCCCC2)c2c(C(=O)O)cc(-c3coc4ccccc34)nc12 [Compound 170, 2-(1-Benzofuran-3-yl)-5-(cyclohexyloxy)-8-ethylquinoline-4-carboxylic acid]	++ (activity>50% of CFTR amplifier+VX-809 (3 uM) with compound at 10 uM and Compound A at 3 uM)
CCc1ccc(OCc2ccccc2)c2c(C(=O)O)cc(-c3c(C)oc4ccccc34)nc12 [Compound 175]	++ (activity>50% of CFTR amplifier+VX-809 (3 uM) with compound at 10 uM and Compound A at 3 uM)
CCc1ccc(OC2CCCCC2)c2c(C(=O)O)cc(-c3c(C)oc4ccccc34)nc12 [Compound 176]	++ (activity>50% of CFTR amplifier+VX-809 (3 uM) with compound at 10 uM and Compound A at 3 uM)
CCc1cc(C(C)(C)C)cc2c(C(=O)O)cc(-c3c(C)oc4ccccc34)nc12 [Compound 178, 6-tert-Butyl-8-ethyl-2-(2-methyl-1-benzofuran-3-yl)quinoline-4-carboxylic acid]	++ (activity>50% of CFTR amplifier+VX-809 (3 uM) with compound at 10 uM and Compound A at 3 uM)
CCc1ccc(COc2ccccc2)c2c(C(=O)O)cc(-c3csc4ccccc34)nc12 [Compound 180]	++ (activity>50% of CFTR amplifier+VX-809 (3 uM) with compound at 10 uM and Compound A at 3 uM)
